Structures can show the parent of a compound that is named as a salt. Where a SMILES comes first, the peptide text is derived from it. [ ]: non-standard residue; d: D form. The star is where a group is joined. Sta = CC(C)C[C@H](N)[C@@H](O)CC(=O)O; Isovaleryl = CC(C)CC(=O)*
Legend:
human renin = target: T1, human renin (Homo sapiens, UniProt P00797); experiment: human renin inhibition test in vitro (angiotensin I by radioimmunoassay); assay type: biochemical; details: human plasma, pH 7.4, 37° C., two hours
T1 construct: purchased National Institute for Biological Standards, London
T1 sequence (P00797 67-406): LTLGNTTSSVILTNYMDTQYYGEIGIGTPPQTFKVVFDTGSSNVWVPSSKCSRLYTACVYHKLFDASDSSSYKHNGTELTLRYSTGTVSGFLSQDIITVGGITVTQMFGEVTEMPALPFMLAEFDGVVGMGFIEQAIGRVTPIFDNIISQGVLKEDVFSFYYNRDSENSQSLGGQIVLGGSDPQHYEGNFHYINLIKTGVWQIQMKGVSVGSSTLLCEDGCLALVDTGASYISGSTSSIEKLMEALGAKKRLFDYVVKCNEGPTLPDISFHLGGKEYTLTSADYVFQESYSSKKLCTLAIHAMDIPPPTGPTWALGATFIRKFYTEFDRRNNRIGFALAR
Experimental: Compounds of Formula I were evaluated as inhibitors of human renin in an in vitro assay, as follows: This human renin inhibition test has been previously described in detail [Papaioannou et al., Clinical and Experimental Hypertension, A7(9), 1243-1257 (1985)]. Human renin was obtained from the National Institute for Biological Standards, London. An incubation mixture was prepared containing in a total volume of 0.25 mL 100 mM Tris-acetate buffer at pH 7.4, 25×10^-6 Goldblatt units of renin, 0.05 mL of plasma from human volunteers taking oral contraceptives, 6.0 mM sodium EDTA, 2.4 mM phenylmethyl sulfonyl fluoride, 1.5 mM 8-hydroxyquinoline, 0.4 mg/mL BSA, and 0.024 mg/mL neomycin sulfate. This mixture was incubated for two hours at 37° C. in the presence or absence of renin inhibitors. The produced angiotensin I was determined by radioimmunoassay (New England Nuclear kit). Test compounds to be assayed were solubilized in DMSO and diluted with 100 mM Tris-acetate buffer at pH 7.4 containing 0.5% bovine serum albumin (BSA) to the appropriate concentration. The final concentration of organic solvent in the reaction mixture was less than 1%. Control incubations at 37° C. were used to correct for effects of organic solvent on renin activity.

plasma renin = experiment: oral activity in vivo in sodium depleted Marmoset monkeys, plasma renin activity; set-up: species or system Common marmosets (Callithrix jacchus); details: 1 h, 3 mg/kg dose
Experimental: The oral activity of compounds of Formula I was determined in vivo in Marmoset monkeys in accordance with the following procedure: Common marmosets (Callithrix jacchus, Charles River) were placed on a modified high protein low sodium diet (Purina, St. Louis, Mo,) for 1 to 2 weeks. On the day of the test an animal was anesthetized with isoflurane and cannulated in the femoral artery and vein for blood pressure monitoring, intravenous saralasin infusion and blood sampling. After allowing the animal to recover from surgery for 2 hr, saralasin was infused at 1 microgram/min for 15 minutes to confirm that the animal's blood pressure was dependent on angiotensin II levels. The marmoset was allowed to stabilize for 30 min after the saralasin infusion. The test compound was administered orally and blood pressure was monitored for 2 hr. Blood samples were taken in K-EDTA for plasma renin activity before, 30 min, and 1 hr after compound administration.

[1] = system: aspartyl proteases such as pepsin, cathepsin D and renin; details: Umezawa et al, J. Antibiot. (Tokyo), 23, 259-262 (1970); cited from earlier work
hog renin = details: after injection of hog renin into nephrectomized rats; Gross et al, Science, 175, 656 (1971); cited from earlier work

| IC50 (human renin) [nM] | Compound | also measured |
| --- | --- | --- |
| 1350 | CC(C)C[C@H](O)[C@H](O)[C@H](CC1CCCCC1)NC(=O)[C@H](C)CNC(=O)[C@H](CCc1ccccc1)CC(=O)N(C)CCCCN(C)C(=O)OC(C)(C)C [Example 21] |  |
| 1.5 | CNCCN(C)C(=O)O[C@@H](Cc1ccccc1)C(=O)N[C@@H](Cc1c[nH]cn1)C(=O)N[C@@H](CC1CCCCC1)[C@@H](O)[C@@H](O)CC(C)C [Example 10, O-{N-[2-(N-methylamino)ethyl]-N-methylaminocarbonyl}-3-L-phenyllactyl-L-histidineamide of (2S,3R,4S)-2-amino-1-cyclohexyl-3,4-dihydroxy-6-methylheptane] | % Reduction of Plasma Renin Activity (plasma renin): 100% |
| 10 | CC(C)C[C@H](O)[C@H](O)[C@H](CC1CCCCC1)NC(=O)[C@H](C)CNC(=O)[C@H](CCc1ccccc1)CC(=O)N(C)CCN(C)C(=O)OC(C)(C)C [Example 25] |  |
| 48 | CC(C)C[C@H](O)[C@H](O)[C@H](CC1CCCCC1)NC(=O)[C@H](C)CNC(=O)[C@@H](CC(=O)N(C)CCN(C)C)Cc1ccccc1 [Example 19] |  |
| 8.3 | CC(C)C[C@H](O)[C@H](O)[C@H](CC1CCCCC1)NC(=O)[C@H](C)CNC(=O)[C@H](Cc1ccccc1)OC(=O)N(C)CCN(C)C(=O)OC(C)(C)C [Example 26] |  |
|  | CC(C)CC(=O)N[C@H](C(=O)N[C@H](C(=O)N[C@@H](CC(C)C)[C@@H](O)CC(=O)N[C@@H](C)C(=O)N[C@@H](CC(C)C)[C@@H](O)CC(=O)O)C(C)C)C(C)C [pepstatin] (Isovaleryl-VV[Sta]A[Sta]-OH) | inhibition of aspartyl proteases [1]: inhibitor of aspartyl proteases such as pepsin, cathepsin D and renin; blood pressure in vivo (hog renin): reduce blood pressure in vivo |
| 5.4 | CC(C)C[C@H](NC(=O)[C@H](Cc1ccccc1)OC(=O)N(C)CCN(C)C)C(=O)N[C@@H](CC1CCCCC1)[C@@H](O)[C@@H](O)CC(C)C [Example 15] | % Reduction of Plasma Renin Activity (plasma renin): 79% |
| 67 | CNCCCCN(C)C(=O)C[C@@H](CCc1ccccc1)C(=O)NC[C@@H](C)C(=O)N[C@@H](CC1CCCCC1)[C@@H](O)[C@@H](O)CC(C)C [Example 22, 3-{N-[4-(N-methylamino)butyl]-N-methyl-aminocarbonyl}-2-R-phenethyl-propionyl-α-(R)-methyl-β-alanineamide of (2S,3R,4S)-2-amino-1-cyclohexyl-3,4-dihydroxy-6-methylheptane] |  |
| 230 | CC(C)C[C@H](O)[C@H](O)[C@H](CC1CCCCC1)NC(=O)[C@H](C)CNC(=O)[C@H](CCc1ccccc1)OC(=O)N(C)CCN(C)C [Example 24] |  |
| 170 | CC(C)C[C@H](O)[C@H](O)[C@H](CC1CCCCC1)NC(=O)[C@H](C)CNC(=O)[C@H](Cc1ccccc1)OC(=O)N(C)CCN(C)C [Example 18] |  |
| 100 | CNCCN(C)C(=O)O[C@@H](Cc1ccccc1)C(=O)NC[C@@H](C)C(=O)N[C@@H](CC1CCCCC1)[C@@H](O)[C@@H](O)CC(C)C [Example 27] |  |
| 0.45 | CC(C)C[C@H](O)[C@H](O)[C@H](CC1CCCCC1)NC(=O)[C@H](Cc1c[nH]cn1)NC(=O)[C@H](Cc1ccccc1)OC(=O)N(C)CCN(C)C(=O)OC(C)(C)C [Example 23] |  |
| 7.7 | CNCCN(C)C(=O)O[C@@H](Cc1ccccc1)C(=O)N[C@@H](CC(C)C)C(=O)N[C@@H](CC1CCCCC1)[C@@H](O)[C@@H](O)CC(C)C [Example 11] | % Reduction of Plasma Renin Activity (plasma renin): 100% |
| 19 | CC(C)C[C@H](NC(=O)[C@H](Cc1ccccc1)OC(=O)N(CCN(C)C)C(C)C)C(=O)N[C@@H](CC1CCCCC1)[C@@H](O)[C@@H](O)CC(C)C [Example 20] |  |
| 1 | CC(C)C[C@H](O)[C@H](O)[C@H](CC1CCCCC1)NC(=O)[C@H](Cc1c[nH]cn1)NC(=O)[C@H](Cc1ccccc1)OC(=O)N(C)CCN(C)C [Example 8, O-{N-[2-(N,N-dimethylamino)ethyl]-N-methylaminocarbonyl}-3-L-phenyllactyl-L-histidineamide of (2S,3R,4S)-2-amino-1-cyclohexyl-3,4-dihydroxy-6-methylheptane] | % Reduction of Plasma Renin Activity (plasma renin): 100% |
| 96 | CNCCN(C)C(=O)C[C@@H](CCc1ccccc1)C(=O)NC[C@@H](C)C(=O)N[C@@H](CC1CCCCC1)[C@@H](O)[C@@H](O)CC(C)C [Example 28, trifluoroacetate salt] |  |

— patent US5229369A, “Aminoalkylaminocarbonyl aminodiol amino acid derivatives as anti-hypertensive agents” (G. D. Searle & Co., priority 1991, dated 1993)
